According to patent US9556237B2 (priority 2012, dated 2017):

Experiments:
RVFV-MP12 = type: cell-based, Rift Valley fever virus
EBOV-eGFP = type: cell-based, Zaire ebolavirus

Compound | inhibition of RVFV-MP12 (plaque reduction), in words (RVFV-MP12) | further results
YWTGSISPKCLSSRRCHLV [RVFV-1] | Only RVFV-5 demonstrated any inhibition | –
FVGAAVSCDAAFLNLTGCY [RVFV-4] | Only RVFV-5 demonstrated any inhibition | –
WGCGCFNVNPSCLFVHTYL [RVFV-2] | Only RVFV-5 demonstrated any inhibition | –
LGASSSRFTNWGSVSLSLD [RVFV-3] | Only RVFV-5 demonstrated any inhibition | –
SGSWNFFDWFSGLMSWFGGPL [RVFV-10] | – | inhibition of EBOV (GFP signal) (EBOV-eGFP): strongly inhibit
CSCC[C@H](NC(=O)[C@H](CC(C)C)NC(=O)CNC(=O)[C@H](CO)NC(=O)[C@H](Cc1ccccc1)NC(=O)[C@H](Cc1c[nH]c2ccccc12)NC(=O)[C@H](CC(=O)O)NC(=O)[C@H](Cc1ccccc1)NC(=O)[C@H](Cc1ccccc1)NC(=O)[C@H](CC(N)=O)NC(=O)[C@@H](N)Cc1c[nH]c2ccccc12)C(=O)N[C@@H](CO)C(=O)N[C@@H](Cc1c[nH]c2ccccc12)C(=O)N[C@@H](Cc1ccccc1)C(=O)NCC(=O)NCC(=O)N1CCC[C@H]1C(=O)N[C@@H](CC(C)C)C(=O)N[C@@H](CCCCN)C(=O)O [RVFV-6, WNFFDWFSGLMSWFGGPLK] | – | impact on cell proliferation (MTT assay) (Vero E6 cells): little negative impact on cell proliferation
